Columns and labels:
N2a neuronal cells = assay: Glutamate-induced neuronal cell death (LDH); format: cell-based; settings: LDH 20 hr later
Method: Grow N2a cells in DMEM (high glucose, 225 ml), Opti-MEM (250 ml) containing 1% Fetal Bovine Serum, 2 mM L-Glutamine, 100 U/ml penicillin and 100 micrograms/mL streptomycin.
Treat N2a neuronal cells with AcA or TTF.
Two hr later add 100 micromolars of freshly diluted glutamate;
Incubate the culture for 20 hr (37° C., 5% CO2);
Measure cytotoxicity by the LDH method
N2a neuronal cells were treated with glutamate (100 μM) and TTF. Cytotoxicity was measured 20 hr later. The results are shown in FIG. 16 and are the mean±SEM of one experiment (n=8).
Achillolide A was added to N2a cells before (−2 h, −1 h) concomitant (0) or after (1 h, 2 h) the addition of glutamate. Cytotoxicity was measured 20 h later by the levels of LDH in the conditioned media. Results are means±SEM of two experiments (n=16). **P<0.01, ***P<0.001, compared to cells that were treated with glutamate only.
N2a neuronal cells were treated with Aβ25-35 (25 μM) and achillolide A. Cytotoxicity was measured 20 hr later. The results are the means±SEM of two different experiments (n=16).
N2a neuronal cells were treated with Aβ25-35 (25 μM) and achillolide A or memantine. Cytotoxicity was measured 20 hr later. The results are the mean±SEM of two different experiments (n=16) for AcA and one experiment (n=8) for memantine.

SAPK/JNK = assay: H2O2-induced SAPK/JNK phosphorylation in astrocytes (ELISA); format: cell-based, rat; settings: H2O2 175 μM 40 min
Method: Astrocytes were treated with TTF 2 h before the addition of H2O2. Cells were lysed 40 minutes after the addition of H2O2 in lysis buffer supplied by PathScan sandwich ELISA kit (Cell Signaling TECHNOLOGY) according to the manufacturer's protocol. Protein concentrations in cell lysates were determined by Bradford reagent (Bio-Rad, Hercules, Calif.), and equal amounts of proteins were subjected to ELISA. To measure the amount of total and phosphoSAPK/JNK in cell lysates of astrocytes, ELISA was performed according to the manufacturer's protocol using the PathScan total SAPK/JNK sandwich ELISA kit (Cell Signaling TECHNOLOGY) and the PathScan phospho-SAPK/JNK (Thr183/Tyr185) sandwich ELISA kit (Cell Signaling TECHNOLOGY), respectively. […] The optical density was determined at 450 nm using a microplate reader.
1. […] Determine the optical density at 450 nm using a microplate reader.
Astrocytes were treated with 175 μM of H2O2 for 40 min following preincubation with TTF for 2 h. The levels of phosphorylated and total SAPK/JNK (FIG. 3A), MEK1 (FIG. 3B) and ERK 1/2 (FIG. 3C) were measured by ELISA. […]

| Structure (SMILES) | effect on glutamate-induced cytotoxicity (N2a neuronal cells) | inhibition of H2O2-induced phosphorylation of SAPK/JNK (SAPK/JNK; astrocytes pretreated 2 h, total SAPK/JNK not affected) [%] | effect on H2O2-induced phosphorylation of SAPK/JNK (SAPK/JNK; astrocytes preincubated 2 h) |
| --- | --- | --- | --- |
| COc1cc(-c2oc3cc(OC)c(OC)c(O)c3c(=O)c2O)ccc1O [TTF, 3,5,4′-trihydroxy-6,7,3′-trimethoxyflavone] | prevents the cytotoxic effect at nanomolar concentrations | 80 |  |
| C=C1CCC2=C(CO)C(=O)O[C@H]2/C=C(\C)[C@H](OC(C)=O)CC1=O [achillolide A] | prevents the cytotoxic effect at nanomolar concentrations |  | inhibitory effect |
